Test results from ChEMBL document CHEMBL3885881, “DrugMatrix”.

Species on record: Rattus norvegicus
Experiment: DrugMatrix - Regimen: Daily Repeat
Type: toxicity, organism-based, Sprague-Dawley
Parameters: regimen Daily Repeat, gender Male, age 6-8 weeks
Settings: in vivo, po, route oral GAVAGE, vehicle .5 % CMC; for BASOPHIL / EOSINOPHIL / ERYTHROCYTE COUNT / HEMATOCRIT / HEMOGLOBIN / LEUKOCYTE COUNT / LYMPHOCYTE / MEAN CORPUSCULAR HEMOGLOBIN / MEAN CORPUSCULAR HEMOGLOBIN CONCENTRATION / MEAN CORPUSCULAR VOLUME / NEUTROPHIL / PLATELET COUNT: tissue Blood; for ALANINE AMINOTRANSFERASE / ALBUMIN / ALKALINE PHOSPHATASE / ASPARTATE AMINOTRANSFERASE / BLOOD UREA NITROGEN / CHLORIDE / CHOLESTEROL / CREATINE PHOSPHOKINASE / CREATININE / GLUCOSE / PHOSPHORUS / POTASSIUM / SODIUM / TOTAL BILIRUBIN / TOTAL PROTEIN: tissue Plasma
[1] = 0 mg/kg, 72 h, dose level Control, time 3 day
[2] = 0 mg/kg, 120 h, dose level Control, time 5 day
[3] = 22 mg/kg, 72 h, dose level High, time 3 day
[4] = 22 mg/kg, 120 h, dose level High, time 5 day
[5] = […], 72 h, dose 2.4 mg/Kg, dose level Low, time 3 day
[6] = […], 120 h, dose 2.4 mg/Kg, dose level Low, time 5 day

## Cc1nc2n(c(=O)c1CCN1CCC(c3noc4cc(F)ccc34)CC1)CCCC2 [RISPERIDONE]
[1]
  BASOPHIL: 0%
  EOSINOPHIL: 0%
  ERYTHROCYTE COUNT: 6.19 x10E6/uL
  HEMATOCRIT: 36.94%
  HEMOGLOBIN: 14.58 G/DL
  LEUKOCYTE COUNT: 11.54 x10E3/uL
  LYMPHOCYTE: 84.8%
  MEAN CORPUSCULAR HEMOGLOBIN: 23.58 pg
  MEAN CORPUSCULAR HEMOGLOBIN CONCENTRATION: 39.44 G/DL
  MEAN CORPUSCULAR VOLUME: 59.76 fL
  NEUTROPHIL: 13.8%
  PLATELET COUNT: 1068.8 x10E3/uL
  ALANINE AMINOTRANSFERASE: 38.17 u/L
  ALBUMIN: 3.88 G/DL
  ALKALINE PHOSPHATASE: 391.33 u/L
  ASPARTATE AMINOTRANSFERASE: 69.83 u/L
  BLOOD UREA NITROGEN: 15 mg/dL
  CHLORIDE: 104.17 MEQ/L
  CHOLESTEROL: 72.17 mg/dL
  CREATINE PHOSPHOKINASE: 174.33 u/L
  CREATININE: 0.58 mg/dL
  GLUCOSE: 192.67 mg/dL
  PHOSPHORUS: 10.52 mg/dL
  POTASSIUM: 6.8 MEQ/L
  SODIUM: 149.67 MEQ/L
  TOTAL BILIRUBIN: 0.78 mg/dL
  TOTAL PROTEIN: 6.28 G/DL
[2]
  BASOPHIL: 0%
  EOSINOPHIL: 0.17%
  ERYTHROCYTE COUNT: 6.72 x10E6/uL
  HEMATOCRIT: 40.02%
  HEMOGLOBIN: 15.83 G/DL
  LEUKOCYTE COUNT: 9.5 x10E3/uL
  LYMPHOCYTE: 87.17%
  MEAN CORPUSCULAR HEMOGLOBIN: 23.57 pg
  MEAN CORPUSCULAR HEMOGLOBIN CONCENTRATION: 39.62 G/DL
  MEAN CORPUSCULAR VOLUME: 59.55 fL
  NEUTROPHIL: 11%
  PLATELET COUNT: 1053.67 x10E3/uL
  ALANINE AMINOTRANSFERASE: 26.33 u/L
  ALBUMIN: 4.02 G/DL
  ALKALINE PHOSPHATASE: 316.67 u/L
  ASPARTATE AMINOTRANSFERASE: 61.33 u/L
  BLOOD UREA NITROGEN: 18.67 mg/dL
  CHLORIDE: 108 MEQ/L
  CHOLESTEROL: 65.17 mg/dL
  CREATINE PHOSPHOKINASE: 161.17 u/L
  CREATININE: 0.75 mg/dL
  GLUCOSE: 177.33 mg/dL
  PHOSPHORUS: 9.72 mg/dL
  POTASSIUM: 6.18 MEQ/L
  SODIUM: 150.5 MEQ/L
  TOTAL BILIRUBIN: 0.68 mg/dL
  TOTAL PROTEIN: 6.55 G/DL
[3]
  BASOPHIL: 0%
  EOSINOPHIL: 0%
  ERYTHROCYTE COUNT: 6.13 x10E6/uL
  HEMATOCRIT: 38.1%
  HEMOGLOBIN: 15.27 G/DL
  LEUKOCYTE COUNT: 13.67 x10E3/uL
  LYMPHOCYTE: 90%
  MEAN CORPUSCULAR HEMOGLOBIN: 24.93 pg
  MEAN CORPUSCULAR HEMOGLOBIN CONCENTRATION: 40.1 G/DL
  MEAN CORPUSCULAR VOLUME: 62.17 fL
  NEUTROPHIL: 7.67%
  PLATELET COUNT: 999.33 x10E3/uL
  ALANINE AMINOTRANSFERASE: 31.33 u/L
  ALBUMIN: 3.77 G/DL
  ALKALINE PHOSPHATASE: 390.33 u/L
  ASPARTATE AMINOTRANSFERASE: 54 u/L
  BLOOD UREA NITROGEN: 13.67 mg/dL
  CHLORIDE: 103.67 MEQ/L
  CHOLESTEROL: 59 mg/dL
  CREATINE PHOSPHOKINASE: 158.67 u/L
  CREATININE: 0.6 mg/dL
  GLUCOSE: 179 mg/dL
  PHOSPHORUS: 10.93 mg/dL
  POTASSIUM: 6.37 MEQ/L
  SODIUM: 148.67 MEQ/L
  TOTAL BILIRUBIN: 0.6 mg/dL
  TOTAL PROTEIN: 5.97 G/DL
[4]
  BASOPHIL: 0%
  EOSINOPHIL: 0.33%
  ERYTHROCYTE COUNT: 6.82 x10E6/uL
  HEMATOCRIT: 40.93%
  HEMOGLOBIN: 16.13 G/DL
  LEUKOCYTE COUNT: 11.33 x10E3/uL
  LYMPHOCYTE: 91.67%
  MEAN CORPUSCULAR HEMOGLOBIN: 23.67 pg
  MEAN CORPUSCULAR HEMOGLOBIN CONCENTRATION: 39.47 G/DL
  MEAN CORPUSCULAR VOLUME: 60 fL
  NEUTROPHIL: 6.67%
  PLATELET COUNT: 1104.33 x10E3/uL
  ALANINE AMINOTRANSFERASE: 28.33 u/L
  ALBUMIN: 4.03 G/DL
  ALKALINE PHOSPHATASE: 320.33 u/L
  ASPARTATE AMINOTRANSFERASE: 53.33 u/L
  BLOOD UREA NITROGEN: 15.33 mg/dL
  CHLORIDE: 106 MEQ/L
  CHOLESTEROL: 70 mg/dL
  CREATINE PHOSPHOKINASE: 145.33 u/L
  CREATININE: 0.63 mg/dL
  GLUCOSE: 170.67 mg/dL
  PHOSPHORUS: 10.97 mg/dL
  POTASSIUM: 6.6 MEQ/L
  SODIUM: 151.67 MEQ/L
  TOTAL BILIRUBIN: 0.7 mg/dL
  TOTAL PROTEIN: 6.6 G/DL
[5]
  BASOPHIL: 0%
  EOSINOPHIL: 0%
  ERYTHROCYTE COUNT: 5.99 x10E6/uL
  HEMATOCRIT: 36.13%
  HEMOGLOBIN: 14.37 G/DL
  LEUKOCYTE COUNT: 11.03 x10E3/uL
  LYMPHOCYTE: 90%
  MEAN CORPUSCULAR HEMOGLOBIN: 23.97 pg
  MEAN CORPUSCULAR HEMOGLOBIN CONCENTRATION: 39.77 G/DL
  MEAN CORPUSCULAR VOLUME: 60.27 fL
  NEUTROPHIL: 9%
  PLATELET COUNT: 1243 x10E3/uL
  ALANINE AMINOTRANSFERASE: 32 u/L
  ALBUMIN: 3.73 G/DL
  ALKALINE PHOSPHATASE: 332.67 u/L
  ASPARTATE AMINOTRANSFERASE: 58 u/L
  BLOOD UREA NITROGEN: 11.33 mg/dL
  CHLORIDE: 103.67 MEQ/L
  CHOLESTEROL: 65.67 mg/dL
  CREATINE PHOSPHOKINASE: 164.67 u/L
  CREATININE: 0.6 mg/dL
  GLUCOSE: 180.67 mg/dL
  PHOSPHORUS: 11.33 mg/dL
  POTASSIUM: 6.43 MEQ/L
  SODIUM: 148.33 MEQ/L
  TOTAL BILIRUBIN: 0.4 mg/dL
  TOTAL PROTEIN: 5.8 G/DL
[6]
  BASOPHIL: 0%
  EOSINOPHIL: 0.67%
  ERYTHROCYTE COUNT: 6.09 x10E6/uL
  HEMATOCRIT: 37.37%
  HEMOGLOBIN: 14.97 G/DL
  LEUKOCYTE COUNT: 13.13 x10E3/uL
  LYMPHOCYTE: 81.67%
  MEAN CORPUSCULAR HEMOGLOBIN: 24.6 pg
  MEAN CORPUSCULAR HEMOGLOBIN CONCENTRATION: 40.1 G/DL
  MEAN CORPUSCULAR VOLUME: 61.4 fL
  NEUTROPHIL: 13%
  PLATELET COUNT: 1107.33 x10E3/uL
  ALANINE AMINOTRANSFERASE: 33.33 u/L
  ALBUMIN: 3.8 G/DL
  ALKALINE PHOSPHATASE: 344.67 u/L
  ASPARTATE AMINOTRANSFERASE: 57.33 u/L
  BLOOD UREA NITROGEN: 15.67 mg/dL
  CHLORIDE: 102 MEQ/L
  CHOLESTEROL: 70.33 mg/dL
  CREATINE PHOSPHOKINASE: 148.33 u/L
  CREATININE: 0.53 mg/dL
  GLUCOSE: 178.67 mg/dL
  PHOSPHORUS: 10.7 mg/dL
  POTASSIUM: 6.43 MEQ/L
  SODIUM: 148.33 MEQ/L
  TOTAL BILIRUBIN: 0.47 mg/dL
  TOTAL PROTEIN: 6.07 G/DL
